# Results: publication doi:10.1101/2024.08.19.608619, “Discovery of potent SARS-CoV-2 nsp3 macrodomain inhibitors uncovers lack of translation to cellular antiviral response” (bioRxiv, 2024)
# Where two headings read alike, the source gives them in different places.
# What was measured:
# beta1 (h) = target: T1, beta1 (h) (Homo sapiens, UniProt P08588); assay: In vitro CEREP profiling, beta1 (h) (agonist radioligand); assay type: binding; conditions: test compound 10 uM; for inhibition at 10 µM: read-out: perc_inhibition (% inhibition of the binding of a ligand specific for each target)
# T1 construct: purchased Eurofins Cerep (SafetyScreen44), recognised from the panel format
# Excerpt: (§1) Supplement media-1.zip/Safety_Panel_Profile.csv, table | column: perc_inhibition
# BZD (central) = assay: In vitro CEREP profiling, BZD (central) (agonist radioligand); assay type: binding; conditions: test compound 10 uM
# Excerpt: as §1
# hERG = hERG (Homo sapiens, UniProt Q12809); assay: In vitro hERG cardiotoxocity; conditions: for IC50: top test concentration 30 uM
# Excerpt: Supplement media-1.zip/Cardiotoxicity.csv, table | column: ic50; perc_inhibition_top_conc
# ASK1(h) = target: T2, ASK1(h) (Homo sapiens, UniProt Q99683); assay: biochemical; parameters: In vitro kinase panel profiling, per cent remaining kinase activity at 10 uM; conditions: atp_concentration=200, read-out: % of control remaining
# T2 construct: gene MAP3K5
# T2 sequence (Q99683 1-1374): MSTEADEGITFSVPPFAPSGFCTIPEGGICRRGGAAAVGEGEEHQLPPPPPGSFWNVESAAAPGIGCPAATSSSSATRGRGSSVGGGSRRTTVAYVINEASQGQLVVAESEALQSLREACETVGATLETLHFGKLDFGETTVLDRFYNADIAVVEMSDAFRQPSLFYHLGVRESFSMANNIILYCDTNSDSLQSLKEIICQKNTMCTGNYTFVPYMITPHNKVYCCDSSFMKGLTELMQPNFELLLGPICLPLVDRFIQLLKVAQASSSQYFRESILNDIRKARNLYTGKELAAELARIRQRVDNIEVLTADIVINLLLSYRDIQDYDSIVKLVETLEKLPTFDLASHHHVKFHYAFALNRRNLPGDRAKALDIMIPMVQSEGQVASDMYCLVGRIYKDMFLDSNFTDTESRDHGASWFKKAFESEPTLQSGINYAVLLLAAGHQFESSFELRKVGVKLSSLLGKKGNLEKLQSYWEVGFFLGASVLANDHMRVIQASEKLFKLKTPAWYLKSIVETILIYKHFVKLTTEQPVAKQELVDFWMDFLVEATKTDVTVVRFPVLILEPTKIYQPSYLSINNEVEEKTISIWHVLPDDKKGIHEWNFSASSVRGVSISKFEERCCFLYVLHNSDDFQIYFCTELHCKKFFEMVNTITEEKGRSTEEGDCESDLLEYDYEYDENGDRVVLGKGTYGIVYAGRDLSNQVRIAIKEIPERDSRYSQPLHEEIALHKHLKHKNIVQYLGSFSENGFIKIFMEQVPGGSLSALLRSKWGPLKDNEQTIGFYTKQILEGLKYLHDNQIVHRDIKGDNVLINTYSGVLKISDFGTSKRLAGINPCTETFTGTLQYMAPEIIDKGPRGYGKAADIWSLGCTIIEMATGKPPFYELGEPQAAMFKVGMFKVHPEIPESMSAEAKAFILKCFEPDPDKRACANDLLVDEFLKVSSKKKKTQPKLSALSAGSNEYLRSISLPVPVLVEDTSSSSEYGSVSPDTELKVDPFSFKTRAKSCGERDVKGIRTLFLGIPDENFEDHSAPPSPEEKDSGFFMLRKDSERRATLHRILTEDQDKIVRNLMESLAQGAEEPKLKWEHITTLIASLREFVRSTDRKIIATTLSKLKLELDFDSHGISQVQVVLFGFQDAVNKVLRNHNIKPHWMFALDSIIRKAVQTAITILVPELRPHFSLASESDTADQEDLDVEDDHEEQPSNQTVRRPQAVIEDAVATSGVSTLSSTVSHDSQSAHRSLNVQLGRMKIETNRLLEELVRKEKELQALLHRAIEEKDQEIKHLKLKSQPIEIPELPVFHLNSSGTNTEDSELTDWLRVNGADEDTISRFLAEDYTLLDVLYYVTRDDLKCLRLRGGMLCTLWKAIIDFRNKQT
# Excerpt: (§2) We derisk potential for off-target activity by profiling the compound in a CEREP panel, a standard secondary pharmacology assessment, as well as a kinase panel to derisk a potential hinge-binding motif in our leads, and a PARP panel to derisk activity against human […]. Reassuringly, the compounds are selective, with the only off-targets being moderate human CHRM2 and KOR receptors activity associated with ASAP-0011198.
# CDK6/cyclinD3(h) = CDK6/cyclinD3(h) (Homo sapiens, UniProt Q00534); assay: biochemical; parameters: In vitro kinase panel profiling, per cent remaining kinase activity at 10 uM; conditions: atp_concentration=200, read-out: % of control remaining
# Excerpt: as §2
# DRAK1(h) = target: T3, DRAK1(h) (Homo sapiens, UniProt Q9UEE5); assay: biochemical; parameters: In vitro kinase panel profiling, per cent remaining kinase activity at 10 uM; conditions: atp_concentration=10, read-out: % of control remaining
# T3 construct: gene STK17A
# T3 sequence (Q9UEE5 1-414): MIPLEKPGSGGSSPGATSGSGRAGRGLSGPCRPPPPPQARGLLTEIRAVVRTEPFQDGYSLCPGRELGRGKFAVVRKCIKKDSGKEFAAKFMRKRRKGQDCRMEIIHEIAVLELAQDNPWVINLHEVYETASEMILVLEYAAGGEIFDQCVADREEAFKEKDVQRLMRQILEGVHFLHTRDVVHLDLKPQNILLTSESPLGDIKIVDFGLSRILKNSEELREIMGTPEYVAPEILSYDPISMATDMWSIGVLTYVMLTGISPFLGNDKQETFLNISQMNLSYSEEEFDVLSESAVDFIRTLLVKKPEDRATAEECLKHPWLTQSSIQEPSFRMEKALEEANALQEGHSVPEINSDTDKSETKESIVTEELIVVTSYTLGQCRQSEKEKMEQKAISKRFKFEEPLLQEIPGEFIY
# Excerpt: as §2
# MAPKAP-K2(h) = target: T4, MAPKAP-K2(h) (Homo sapiens, UniProt P49137); assay: biochemical; parameters: In vitro kinase panel profiling, per cent remaining kinase activity at 10 uM; conditions: atp_concentration=90, read-out: % of control remaining
# T4 construct: gene MAPKAPK2
# Excerpt: as §2
# PKCα(h) = target: T5, PKCα(h) (Homo sapiens, UniProt P17252); assay: biochemical; parameters: In vitro kinase panel profiling, per cent remaining kinase activity at 10 uM; conditions: atp_concentration=45, read-out: % of control remaining
# T5 construct: gene PRKCA
# Excerpt: as §2
# PKCθ(h) = target: T6, PKCθ(h) (Homo sapiens, UniProt Q04759); assay: biochemical; parameters: In vitro kinase panel profiling, per cent remaining kinase activity at 10 uM; conditions: atp_concentration=15, read-out: % of control remaining
# T6 construct: gene PRKCQ
# Excerpt: as §2
# [1] = at top test concentration 30 uM
# T1 sequence (P08588 whole entry): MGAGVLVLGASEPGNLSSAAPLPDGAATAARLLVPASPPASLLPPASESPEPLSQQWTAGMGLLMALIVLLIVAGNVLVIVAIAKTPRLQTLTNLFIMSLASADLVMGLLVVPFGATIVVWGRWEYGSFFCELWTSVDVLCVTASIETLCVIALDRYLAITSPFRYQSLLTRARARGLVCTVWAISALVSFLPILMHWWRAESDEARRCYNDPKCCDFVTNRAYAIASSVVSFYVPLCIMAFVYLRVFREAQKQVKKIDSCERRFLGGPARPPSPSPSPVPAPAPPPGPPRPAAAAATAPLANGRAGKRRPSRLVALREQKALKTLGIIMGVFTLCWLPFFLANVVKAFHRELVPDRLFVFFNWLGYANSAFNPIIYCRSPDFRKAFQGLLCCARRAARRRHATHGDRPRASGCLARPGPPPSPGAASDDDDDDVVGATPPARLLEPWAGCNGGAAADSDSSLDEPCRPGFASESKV
# Chain of CDK6/cyclinD3(h) (Q00534 whole entry): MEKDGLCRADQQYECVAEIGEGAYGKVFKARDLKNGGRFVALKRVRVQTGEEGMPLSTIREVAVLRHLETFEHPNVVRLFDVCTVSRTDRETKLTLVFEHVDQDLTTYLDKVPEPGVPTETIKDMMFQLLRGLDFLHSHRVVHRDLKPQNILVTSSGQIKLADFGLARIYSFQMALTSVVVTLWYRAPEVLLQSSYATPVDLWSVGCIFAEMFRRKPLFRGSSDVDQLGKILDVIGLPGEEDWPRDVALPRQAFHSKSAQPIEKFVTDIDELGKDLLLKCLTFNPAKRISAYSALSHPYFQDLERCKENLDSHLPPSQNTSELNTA
# Chain of CDK6/cyclinD3(h) (P30281 whole entry partner): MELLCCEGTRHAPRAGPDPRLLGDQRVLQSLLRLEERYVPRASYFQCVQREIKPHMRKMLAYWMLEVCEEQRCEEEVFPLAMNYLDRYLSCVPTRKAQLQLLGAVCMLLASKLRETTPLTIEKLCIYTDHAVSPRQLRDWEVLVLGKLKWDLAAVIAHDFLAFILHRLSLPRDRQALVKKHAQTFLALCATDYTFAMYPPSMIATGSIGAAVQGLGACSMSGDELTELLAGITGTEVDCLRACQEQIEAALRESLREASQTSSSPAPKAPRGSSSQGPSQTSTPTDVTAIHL
# T4 sequence (P49137 whole entry): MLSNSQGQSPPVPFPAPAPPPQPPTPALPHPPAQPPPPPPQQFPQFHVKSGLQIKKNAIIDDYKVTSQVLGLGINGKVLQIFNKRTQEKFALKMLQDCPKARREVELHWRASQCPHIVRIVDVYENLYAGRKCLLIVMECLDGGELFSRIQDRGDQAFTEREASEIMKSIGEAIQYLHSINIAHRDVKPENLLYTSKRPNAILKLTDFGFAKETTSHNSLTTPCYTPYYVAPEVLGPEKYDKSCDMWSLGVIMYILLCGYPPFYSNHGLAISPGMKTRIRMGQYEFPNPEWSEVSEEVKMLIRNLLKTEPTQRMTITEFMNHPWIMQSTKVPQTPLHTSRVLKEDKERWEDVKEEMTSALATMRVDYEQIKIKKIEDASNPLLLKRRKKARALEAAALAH
# Chain of hERG (Q12809 whole entry): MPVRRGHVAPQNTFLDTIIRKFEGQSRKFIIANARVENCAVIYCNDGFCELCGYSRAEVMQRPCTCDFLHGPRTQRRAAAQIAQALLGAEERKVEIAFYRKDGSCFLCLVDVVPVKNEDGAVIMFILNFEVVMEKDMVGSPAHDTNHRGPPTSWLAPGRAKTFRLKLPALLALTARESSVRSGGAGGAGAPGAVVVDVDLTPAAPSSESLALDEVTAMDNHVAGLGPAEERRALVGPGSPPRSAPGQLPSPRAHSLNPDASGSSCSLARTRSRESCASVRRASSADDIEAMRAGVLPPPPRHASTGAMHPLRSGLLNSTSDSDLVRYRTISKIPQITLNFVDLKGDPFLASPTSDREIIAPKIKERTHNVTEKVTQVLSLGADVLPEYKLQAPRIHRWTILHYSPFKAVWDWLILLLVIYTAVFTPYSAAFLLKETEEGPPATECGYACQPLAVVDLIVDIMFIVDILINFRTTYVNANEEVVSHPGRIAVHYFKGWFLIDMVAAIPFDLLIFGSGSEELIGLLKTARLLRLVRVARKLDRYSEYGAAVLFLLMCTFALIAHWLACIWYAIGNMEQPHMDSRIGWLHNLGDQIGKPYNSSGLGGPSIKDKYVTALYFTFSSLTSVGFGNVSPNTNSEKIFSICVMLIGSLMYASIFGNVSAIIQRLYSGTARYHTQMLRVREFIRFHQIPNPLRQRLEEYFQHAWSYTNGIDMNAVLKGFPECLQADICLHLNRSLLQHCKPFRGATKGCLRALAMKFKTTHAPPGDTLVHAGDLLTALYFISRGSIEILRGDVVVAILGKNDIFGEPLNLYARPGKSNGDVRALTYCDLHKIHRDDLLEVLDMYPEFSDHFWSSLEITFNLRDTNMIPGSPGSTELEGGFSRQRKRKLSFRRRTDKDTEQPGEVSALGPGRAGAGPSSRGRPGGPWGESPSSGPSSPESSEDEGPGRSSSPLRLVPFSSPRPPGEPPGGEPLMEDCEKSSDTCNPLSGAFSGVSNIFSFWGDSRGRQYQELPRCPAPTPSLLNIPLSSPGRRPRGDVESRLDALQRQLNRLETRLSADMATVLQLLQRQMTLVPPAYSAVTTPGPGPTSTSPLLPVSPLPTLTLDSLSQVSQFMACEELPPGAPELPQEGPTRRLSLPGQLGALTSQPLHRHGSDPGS
# T6 sequence (Q04759 whole entry): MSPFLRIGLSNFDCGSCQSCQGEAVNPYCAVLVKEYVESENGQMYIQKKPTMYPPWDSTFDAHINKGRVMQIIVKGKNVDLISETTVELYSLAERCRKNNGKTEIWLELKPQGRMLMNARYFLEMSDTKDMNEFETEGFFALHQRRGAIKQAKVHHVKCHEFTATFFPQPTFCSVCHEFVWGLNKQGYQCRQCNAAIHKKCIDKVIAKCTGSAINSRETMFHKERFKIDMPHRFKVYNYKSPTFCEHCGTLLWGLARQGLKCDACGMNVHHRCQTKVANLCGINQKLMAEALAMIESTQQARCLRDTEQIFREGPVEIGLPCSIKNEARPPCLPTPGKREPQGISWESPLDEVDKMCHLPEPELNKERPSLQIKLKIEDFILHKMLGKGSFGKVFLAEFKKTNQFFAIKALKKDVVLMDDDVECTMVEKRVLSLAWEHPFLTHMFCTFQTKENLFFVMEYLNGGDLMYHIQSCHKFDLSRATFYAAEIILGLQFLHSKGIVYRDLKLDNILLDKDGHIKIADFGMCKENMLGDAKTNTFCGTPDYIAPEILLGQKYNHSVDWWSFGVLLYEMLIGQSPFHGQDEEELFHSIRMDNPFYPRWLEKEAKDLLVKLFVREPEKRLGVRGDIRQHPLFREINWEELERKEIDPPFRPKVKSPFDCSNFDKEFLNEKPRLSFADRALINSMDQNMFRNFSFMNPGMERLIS
structure (smiles),measurement,setting,value
CC(C)[C@H](Nc1ncnc2[nH]ccc12)c1ccc2c(c1)S(=O)(=O)CCC2 [ASAP-0008674],perc_inhibition (% inhibition of the binding of a ligand specific for each target),beta1 (h),11%
same,perc_inhibition (% inhibition of the binding of a ligand specific for each target),BZD (central),4%
same,perc_inhibition_top_conc,hERG; [1],39.0%
same,IC50,hERG,> 30 µM
same,remaining activity at 10 µM,ASK1(h); batch_name=ASAP-0008674-002,105%
same,remaining activity at 10 µM,CDK6/cyclinD3(h); batch_name=ASAP-0008674-002,105%
same,remaining activity at 10 µM,DRAK1(h); batch_name=ASAP-0008674-002,117%
same,remaining activity at 10 µM,MAPKAP-K2(h); batch_name=ASAP-0008674-002,106%
same,remaining activity at 10 µM,PKCα(h); batch_name=ASAP-0008674-002,98%
same,remaining activity at 10 µM,PKCθ(h); batch_name=ASAP-0008674-002,88%
CC(C)C(Nc1ncnc2[nH]c(C(=O)NC3CCN(C)C3)cc12)c1ccc2c(c1)S(=O)(=O)CCC2 (stereo not drawn) [ASAP-0011198],inhibition at 10 µM,beta1 (h),4%
same,perc_inhibition (% inhibition of the binding of a ligand specific for each target),BZD (central),38%
same,perc_inhibition_top_conc,"hERG; at top test concentration 30 uM, 30 µM",23.0%
same,inhibition at 30 µM,"hERG; human, at top test concentration 30 uM, read-out: perc_inhibition_top_conc",18%
same,IC50,hERG,> 30 µM
same,remaining activity at 10 µM,ASK1(h); batch_name=ASAP-0011198-002,105%
same,remaining activity at 10 µM,CDK6/cyclinD3(h); batch_name=ASAP-0011198-002,99%
same,remaining activity at 10 µM,DRAK1(h); batch_name=ASAP-0011198-002,105%
same,remaining activity at 10 µM,MAPKAP-K2(h); batch_name=ASAP-0011198-002,108%
same,remaining activity at 10 µM,PKCα(h); batch_name=ASAP-0011198-002,101%
same,remaining activity at 10 µM,PKCθ(h); batch_name=ASAP-0011198-002,102%
Cc1nn(C)cc1-c1cc2c(NC(c3ccc4c(c3)S(=O)(=O)CCC4)C(C)C)ncnc2[nH]1 (stereo not drawn) [ASAP-0011446],inhibition at 10 µM,beta1 (h),1%
same,perc_inhibition (% inhibition of the binding of a ligand specific for each target),BZD (central),29%
same,remaining activity at 10 µM,ASK1(h); batch_name=ASAP-0011446-002,103%
same,remaining activity at 10 µM,CDK6/cyclinD3(h); batch_name=ASAP-0011446-002,106%
same,remaining activity at 10 µM,DRAK1(h); batch_name=ASAP-0011446-002,111%
same,remaining activity at 10 µM,MAPKAP-K2(h); batch_name=ASAP-0011446-002,110%
same,remaining activity at 10 µM,PKCα(h); batch_name=ASAP-0011446-002,93%
same,remaining activity at 10 µM,PKCθ(h); batch_name=ASAP-0011446-002,106%
C[C@H](C(=O)O)[C@@H](NC(=O)c1ncnc2[nH]ccc12)c1ccc(Br)cc1 [ASAP-0014722],perc_inhibition (% inhibition of the binding of a ligand specific for each target),beta1 (h),-5%
same,perc_inhibition (% inhibition of the binding of a ligand specific for each target),BZD (central),-4%
same,perc_inhibition_top_conc,hERG; [1],28.0%
same,IC50,hERG,> 30 µM
same,remaining activity at 10 µM,ASK1(h); batch_name=ASAP-0014722-002,102%
same,remaining activity at 10 µM,CDK6/cyclinD3(h); batch_name=ASAP-0014722-002,97%
same,remaining activity at 10 µM,DRAK1(h); batch_name=ASAP-0014722-002,98%
same,remaining activity at 10 µM,MAPKAP-K2(h); batch_name=ASAP-0014722-002,98%
same,remaining activity at 10 µM,PKCα(h); batch_name=ASAP-0014722-002,108%
same,remaining activity at 10 µM,PKCθ(h); batch_name=ASAP-0014722-002,100%
